{"source": "patent EP0269311A2", "about": "“Methods of treating bone diseases by administration of a cysteine proteinase inhibitor” (Merck & Co., Inc., priority 1986, dated 1988)", "key": {"[1]": {"system": "serum Ca⁺⁺", "assay": "Rat model of humoral hypercalcemia of malignancy (transplanted Rice 500 Leydig cell tumor), serum Ca++", "format": "in vivo, male Fisher rats", "settings": "for Serum mg % Ca++: 40 mg/kg/day intubated once a day from two days after tumor transplantation", "source_text": "A rat model that closely mimics the human syndrome of Humoral Hypercalcemia of Malignancy was described by Insogna et al, Endocrinology 114, 888-896 (1984). In this model a Rice 500 Leydig cell tumor is transplated in male Fisher rats. […] These findings exactly parallel those in human humoral hypercalcemia of malignancy. The same model was used to study the effect of the formula I compound on lowering serum Ca⁺⁺ levels in rodents with established malignant hypercalcemia. Rats (150-200 gr) were intubated once a day with three different doses of the formula I compound including 10 mg, 25 mg and 80 mg/kg/day as shown in Figure 1. Control animals received no compound. The compound was given on days 10-15 after tumor transplantation when all animals were hypercalcemic. In experiment No. 2 (Table 1), rodents were intubated once a day with 40 mg/kg, of the formula I compound two days after tumor transplantation. These studies were utilized to examine whether the formula I compound could prevent tumor-induced hypercalcemia in these animals which generally appears 8-10 days after transplantation."}, "[2]": {"system": "serum Ca⁺⁺", "assay": "Rat model of secondary hyperparathyroidism (Ca++ deficient diet), serum Ca++", "format": "in vivo, Rats", "settings": "intubated", "source_text": "In this model rats are fed a Ca⁺⁺ deficient diet, causing an enhanced release of parathyroid hormone (PTH) and secondary hyperparathyroidism. At this stage most of the serum Ca⁺⁺ is mobilized from bone. To maintain serum calcium levels within the normal range, bone resorption is stimulated by the released parathyroid hormone. This model was used to study the effect of Formula I compound on rats with secondary hyperparathyroidism. Rats (150-200 gr) were kept on a Ca⁺⁺ deficient diet for 7 days. Different doses of Formula I compound were intubated into animals (n=10) and serum Ca⁺⁺ was monitored at 0, 4, 8, 12 and 24 hours."}, "[3]": {"target": "T1, papain (Carica papaya, UniProt P00784)", "T1 sequence (P00784 134-345)": "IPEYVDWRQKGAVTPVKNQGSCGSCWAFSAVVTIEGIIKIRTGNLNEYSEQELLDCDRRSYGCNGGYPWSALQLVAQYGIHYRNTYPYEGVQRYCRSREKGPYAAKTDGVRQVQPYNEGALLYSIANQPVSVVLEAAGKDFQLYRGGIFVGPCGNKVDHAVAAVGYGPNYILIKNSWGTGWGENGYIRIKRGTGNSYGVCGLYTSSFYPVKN", "settings": "with the disappearance of the thiol group of papain; cited from earlier work"}, "[4]": {"target": "cathepsin B (Homo sapiens, UniProt P07858)", "settings": "cited from earlier work"}, "[5]": {"target": "T2, cathepsin H (Homo sapiens, UniProt P09668)", "T2 sequence (P09668 98-335)": "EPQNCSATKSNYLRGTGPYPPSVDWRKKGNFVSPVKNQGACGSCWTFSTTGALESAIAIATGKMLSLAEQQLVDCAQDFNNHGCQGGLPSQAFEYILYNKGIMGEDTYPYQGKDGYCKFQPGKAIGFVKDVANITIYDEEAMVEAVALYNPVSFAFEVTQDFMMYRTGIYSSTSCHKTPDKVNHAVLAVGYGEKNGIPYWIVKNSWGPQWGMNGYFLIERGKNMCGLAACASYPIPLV", "settings": "cited from earlier work"}, "[6]": {"system": "serine proteinases", "settings": "cited from earlier work"}, "[7]": {"system": "metalloproteinases", "settings": "cited from earlier work"}}}
{"smiles": "CC(C)C[C@H](NC(=O)[C@H]1O[C@@H]1C(=O)O)C(=O)NCCCCN=C(N)N", "note": "[Formula I compound, epoxysuccinyl-leucylamido (4-guanidino)butane]", "values": [{"measurement": "Serum mg % Ca++", "setting": "[1]; day 2", "value": "10.5 ± 0.3", "unit": "mg %"}, {"measurement": "Serum mg % Ca++", "setting": "[1]; day 4", "value": "10.1 ± 0.4", "unit": "mg %"}, {"measurement": "Serum mg % Ca++", "setting": "[1]; day 6", "value": "10.2 ± 0.2", "unit": "mg %"}, {"measurement": "Serum mg % Ca++", "setting": "[1]; day 8", "value": "10.3 ± 0.3", "unit": "mg %"}, {"measurement": "Serum mg % Ca++", "setting": "[1]; day 10", "value": "9.8 ± 0.4", "unit": "mg %"}, {"measurement": "Serum mg % Ca++", "setting": "[1]; day 11", "value": "10.3 ± 0.4", "unit": "mg %"}, {"measurement": "Serum mg % Ca++", "setting": "[1]; day 12", "value": "10.1 ± 0.3", "unit": "mg %"}, {"measurement": "Serum mg % Ca++", "setting": "[1]; day 13", "value": "10.4 ± 0.4", "unit": "mg %"}, {"measurement": "Serum mg % Ca++", "setting": "[1]; day 14", "value": "10.5 ± 0.3", "unit": "mg %"}, {"measurement": "Serum mg % Ca++", "setting": "[1]; day 15", "value": "10.6 ± 0.4", "unit": "mg %"}, {"measurement": "tumor induced hypercalcemia (established)", "setting": "[1]; given orally, 10 mg, 25 mg and 80 mg/kg/day on days 10-15 after tumor transplantation (Figure 1)", "value": "block"}, {"measurement": "tumor induced hypercalcemia (prevention)", "setting": "[1]; given orally, 40 mg/kg once a day from two days after tumor transplantation (Table I)", "value": "can prevent"}, {"measurement": "Serum mg % Ca++", "setting": "[2]; 10 mg, 0 hours", "value": "11.5 ± 0.5", "unit": "mg %"}, {"measurement": "Serum mg % Ca++", "setting": "[2]; 10 mg, 4 hours", "value": "10.6 ± 0.4", "unit": "mg %"}, {"measurement": "Serum mg % Ca++", "setting": "[2]; 10 mg, 8 hours", "value": "10.4 ± 0.5", "unit": "mg %"}, {"measurement": "Serum mg % Ca++", "setting": "[2]; 10 mg, 12 hours", "value": "10.2 ± 0.4", "unit": "mg %"}, {"measurement": "Serum mg % Ca++", "setting": "[2]; 10 mg, 24 hours", "value": "11.5 ± 0.6", "unit": "mg %"}, {"measurement": "Serum mg % Ca++", "setting": "[2]; 20 mg, 0 hours", "value": "11.3 ± 0.4", "unit": "mg %"}, {"measurement": "Serum mg % Ca++", "setting": "[2]; 20 mg, 4 hours", "value": "10.2 ± 0.3", "unit": "mg %"}, {"measurement": "Serum mg % Ca++", "setting": "[2]; 20 mg, 8 hours", "value": "9.7 ± 0.4", "unit": "mg %"}, {"measurement": "Serum mg % Ca++", "setting": "[2]; 20 mg, 12 hours", "value": "9.5 ± 0.3", "unit": "mg %"}, {"measurement": "Serum mg % Ca++", "setting": "[2]; 20 mg, 24 hours", "value": "12.0 ± 0.3", "unit": "mg %"}, {"measurement": "Serum mg % Ca++", "setting": "[2]; 60 mg, 0 hours", "value": "11.7 ± 0.6", "unit": "mg %"}, {"measurement": "Serum mg % Ca++", "setting": "[2]; 60 mg, 4 hours", "value": "9.8 ± 0.4", "unit": "mg %"}, {"measurement": "Serum mg % Ca++", "setting": "[2]; 60 mg, 8 hours", "value": "9.5 ± 0.3", "unit": "mg %"}, {"measurement": "Serum mg % Ca++", "setting": "[2]; 60 mg, 12 hours", "value": "8.9 ± 0.4", "unit": "mg %"}, {"measurement": "Serum mg % Ca++", "setting": "[2]; 60 mg, 24 hours", "value": "12.7 ± 0.4", "unit": "mg %"}, {"measurement": "drop of serum Ca⁺⁺", "setting": "[2]; most effective dose 40 mg/kg, in 12 hours", "value": 28.8, "unit": "%"}, {"measurement": "inhibition of papain", "setting": "[3]", "value": "inhibit"}, {"measurement": "inhibition of cathepsin B", "setting": "[4]", "value": "inhibit"}, {"measurement": "inhibition of cathepsin H", "setting": "[5]", "value": "inhibit"}, {"measurement": "effect on serine proteinases", "setting": "[6]", "value": "unaffected"}, {"measurement": "effect on metalloproteinases", "setting": "[7]", "value": "unaffected"}]}
